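96-well plates; 48 h exposure; 5 concentrations. Endpoints by linear interpolation between flanking doses. Not reached: highest tested concentration assigned. GI50 = concentration required for 50% inhibition of growth. TGI: total growth inhibition.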
Assays:
Assay in all cases: NCI tumour cell line growth inhibition, 48 h
SF-295 CNS = test system: SF-295 CNS
HL-60(TB) leukemia = test system: HL-60(TB) leukemia
M14 melanoma = test system: M14 melanoma
HCT-15 colon = test system: HCT-15 colon
IGROV1 ovarian = test system: IGROV1 ovarian
KM12 colon = test system: KM12 colon
SW-620 colon = test system: SW-620 colon
OVCAR-3 ovarian = test system: OVCAR-3 ovarian
SNB-75 CNS = test system: SNB-75 CNS
OVCAR-5 ovarian = test system: OVCAR-5 ovarian
NCI-H23 lung = test system: NCI-H23 lung
A498 renal = test system: A498 renal
MALME-3M melanoma = test system: MALME-3M melanoma
HCT-116 colon = test system: HCT-116 colon

Row | Structure (SMILES) | TGI (SF-295 CNS) [µM] | TGI (HL-60(TB) leukemia) [µM] | TGI (M14 melanoma) [µM] | TGI (HCT-15 colon) [µM] | TGI (IGROV1 ovarian) [µM] | TGI (KM12 colon) [µM] | TGI (SW-620 colon) [µM] | TGI (OVCAR-3 ovarian) [µM] | TGI (SNB-75 CNS) [µM] | TGI (OVCAR-5 ovarian) [µM] | TGI (NCI-H23 lung) [µM] | TGI (A498 renal) [µM] | TGI (MALME-3M melanoma) [µM] | TGI (HCT-116 colon) [µM] | GI50 (A498 renal) [µM] | GI50 (SW-620 colon) [µM] | GI50 (SNB-75 CNS) [µM] | GI50 (OVCAR-5 ovarian) [µM] | GI50 (MALME-3M melanoma) [µM] | GI50 (HCT-116 colon) [µM]
1 | CCOc1ccc(/C=C2\N=C(c3ccccc3)OC2=O)cc1 | > 100 | > 100 | > 100 | > 100 | > 100 | > 100 | > 100 | > 100 | > 100 | > 100 | > 100 | – | – | – | – | – | – | – | – | –
2 | C/C(=N/NC(=O)c1ccncc1)C(F)(F)F | > 100 | > 100 | > 100 | > 100 | > 100 | > 100 | – | > 100 | > 100 | > 100 | > 100 | > 100 | > 100 | > 100 | – | – | – | – | – | –
3 | NCCCCCC(CCN)SCC1OC(n2cnc3c(N)ncnc32)C(O)C1O (configuration not stated) | > 1500 | > 1500 | – | > 1500 | > 1500 | > 1500 | > 1500 | > 1500 | > 1500 | > 1500 | > 1500 | > 1500 | > 1500 | > 1500 | – | – | – | – | – | –
4 | COc1cccc2c1C(=O)c1c(O)c3c(c(O)c1C2=O)C[C@@](O)(C(=O)CO)CC3OC1CC(N(C)CCOCC(OC(C)=O)OC(C)=O)C(O)C(C)O1 (some centres not stated) | > 0.01 | > 0.01 | > 0.01 | – | > 0.01 | > 0.01 | > 0.01 | > 0.01 | > 0.01 | > 0.01 | > 0.01 | – | > 0.01 | – | – | – | – | – | – | –
5 | COC(=O)/C=C1\SC2(OC1=Nc1ccccc1)C1CC3CC(C1)CC2C3 (configuration not stated) | > 100 | > 100 | – | > 100 | > 100 | > 100 | > 100 | > 100 | > 100 | > 100 | – | > 100 | – | > 100 | – | – | – | – | – | –
6 | C[N+]1(C)C2CC(OC(=O)C(CO)c3ccccc3)CC1C1OC12 (configuration not stated) | > 100 | > 100 | > 100 | > 100 | > 100 | > 100 | > 100 | > 100 | > 100 | > 100 | > 100 | > 100 | > 100 | > 100 | – | – | – | – | – | –
7 | O=C1c2cc(Br)ccc2-c2ccc3c4ccc5c6c(ccc(c7ccc1c2c73)c64)C(=O)c1cc(Br)ccc1-5 | – | > 100 | > 100 | > 100 | > 100 | > 100 | > 100 | > 100 | – | > 100 | > 100 | > 100 | > 100 | > 100 | – | – | – | – | – | –
8 | CC(=O)CCC#Cc1ccccc1C(=O)C(C)=[N+]=[N-] | > 100 | > 100 | > 100 | > 100 | > 100 | > 100 | > 100 | > 100 | 69.2 | > 100 | > 100 | > 100 | 84.1 | 47.8 | – | – | – | – | – | –
9 | O=C1C=CC2(C=C1)O[C@H](COCc1ccccc1)[C@@H](COCc1ccccc1)O2 | 30.3 | 6.4 | 3.88 | 2.99 | 3.03 | 14.3 | 0.765 | 6.32 | 13.4 | 3.04 | 4.29 | 34.1 | 6.48 | 0.582 | – | – | – | – | – | –
10 | COc1ccc(-c2cc(N3CCN(c4ccc(Cl)cc4)CC3)c(C#N)c(=O)o2)cc1 | 16.4 | > 100 | > 100 | > 100 | 42.4 | > 100 | > 100 | – | 10.8 | > 100 | 88.1 | 49.4 | 22.3 | 32.7 | – | – | – | – | – | –
11 | O=C(O)c1ccccc1CN1CCCC(C(=O)O)C1 (configuration not stated) | > 100 | – | > 100 | > 100 | > 100 | > 100 | > 100 | > 100 | > 100 | > 100 | > 100 | > 100 | > 100 | > 100 | – | – | – | – | – | –
12 | CC[C@@H]1/C=C/C=C/C[C@H](C)[C@@H](O)[C@@H](C)C(=O)[C@H](C)[C@@H](O)[C@H](C)C(=O)[C@H](C)[C@@H](O)[C@H](C)/C=C/C(=O)O[C@H]2[C@@H](C)[C@@H](CC1)O[C@@]1(CC[C@@H](C)[C@@H](CC(C)O)O1)[C@@H]2C (some centres not stated) | – | 7.27 | > 14.7 | > 25 | 24.9 | > 21.5 | > 25 | 17.7 | > 7.9 | 15.4 | > 25 | 11 | > 24 | > 25 | – | – | – | – | – | –
13 | CN1C2CCC1/C(=C/c1cccc3c1OCO3)C(=O)/C2=C\c1cccc2c1OCO2 | 84.6 | > 100 | > 100 | > 100 | > 100 | > 100 | > 100 | > 100 | 49.7 | > 100 | > 100 | – | > 100 | > 100 | – | – | – | – | – | –
14 | Cc1cccc2cc(/C=C/C(=O)/C=C/c3ccc(Cl)cc3)c(=O)[nH]c12 | – | – | – | – | – | – | > 100 | – | > 100 | > 100 | – | > 100 | > 100 | 0.635 | > 100 | 2.98 | 16.8 | > 100 | > 100 | 0.259
15 | NC(Cc1ccc(CP(=O)(O)O)cc1)C(=O)O (configuration not stated) | > 100 | > 100 | > 100 | > 100 | > 100 | > 100 | > 100 | > 100 | > 100 | > 100 | > 100 | – | – | > 100 | – | – | – | – | – | –
16 | Fc1ccc(Nc2nc(Cl)c3[nH]cnc3n2)cc1Cl | > 100 | > 100 | > 100 | > 100 | > 100 | > 100 | > 100 | > 100 | > 100 | > 100 | > 100 | > 100 | > 100 | > 100 | – | – | – | – | – | –
17 | O=C(O)C(Cc1cc(I)c(O)c(I)c1)C1CCCCC1 (configuration not stated) | > 100 | – | > 100 | > 100 | > 100 | > 100 | > 100 | 38.5 | > 100 | > 100 | 65.5 | 63.7 | > 100 | 88.7 | – | – | – | – | – | –
18 | C=C=C[P+](c1ccccc1)(c1ccccc1)c1ccccc1 | – | 23.4 | 19.5 | 73.8 | > 100 | 28.2 | – | 34.4 | 44.9 | – | – | > 100 | 26.7 | 15.5 | – | – | – | – | – | –
19 | CCOC(=O)CC1=N/C(=N/C(=N)N[N+](=O)[O-])SC1 | > 100 | > 100 | > 100 | > 100 | > 100 | > 100 | > 100 | > 100 | > 100 | > 100 | > 100 | > 100 | > 100 | > 100 | – | – | – | – | – | –
20 | NC(N)=N/N=C\c1c(-c2cccc([N+](=O)[O-])c2)nc2sccn12 | 5.86 | > 100 | 5.93 | > 100 | 33.6 | 3.66 | 5.43 | 6.29 | – | > 100 | 32.1 | 64.1 | 51.4 | > 100 | – | – | – | – | – | –
21 | Nc1ccccc1N | > 100 | 70.3 | > 100 | > 100 | > 100 | > 100 | > 100 | > 100 | > 100 | > 100 | > 100 | > 100 | > 100 | > 100 | – | – | – | – | – | –

From PubChem BioAssay (NCI)
